We go through 26 molecules from patent US9868727B2, “Factor XIa inhibitors” (Merck Sharp & Dohme Corp., priority 2014, dated 2018).

Molecules are shown by their SMILES.

In experiment [1] the target is T1, purified human Factor XIa (Homo sapiens, UniProt P03951).
T1 construct: purified human Factor XIa; purchased Sekisui Diagnostics
In words: Factor XIa Assay. The conditions noted are these: fluorogenic substrate Z-Gly-Pro-Arg-AFC 100 μM, 40 pM enzyme, pH 7.4, read-out: F11a IC50. In kind it is biochemical. The protocol: The effectiveness of a compound of the present invention as an inhibitor of Coagulation Factor XIa can be determined using a relevant purified serine protease, and an appropriate synthetic substrate. The rate of hydrolysis of the chromogenic or fluorogenic substrate by the relevant serine protease was measured both in the absence and presence of compounds of the present invention. Assays were conducted at room temperature or at 37° C. […] A decrease in the rate of fluorescence change in the presence of inhibitor is indicative of enzyme inhibition. Such methods are known to one skilled in the art. […]
Factor XIa determinations were made in 50 mM HEPES buffer at pH 7.4 containing 150 mM NaCl, 5 mM CaCl2, and 0.1% PEG 8000 (polyethylene glycol; JT Baker or Fisher Scientific). Determinations were made using purified human Factor XIa at a final concentration of 40 pM (Sekisui Diagnostics) and he synthetic substrate, Z-Gly-Pro-Arg-AFC, TFA salt (Sigma #C0980) at a concentration of 100 μM.
Activity assays were performed by diluting a stock solution of substrate at least tenfold to a final concentration ≦0.1 Km into a solution containing enzyme or enzyme equilibrated with inhibitor. Times required to achieve equilibration between enzyme and inhibitor were determined in control experiments. Initial velocities of product formation in the absence (VO) or presence of inhibitor (Vi) were measured. Assuming competitive inhibition, and that unity is negligible compared Km/[S], [I]/e, and [I]/e (where [S], [I], and e respectively represent the total concentrations, of substrate, inhibitor and enzyme), the equilibrium constant (Ki) for dissociation of the inhibitor from the enzyme can be obtained from the dependence of VO/Vi on [I] shown in the following equation.

Experiment [2] has as its target T2, purified Human plasma kallikrein (Homo sapiens, UniProt P03952).
T2 construct: yields a heavy chain (371 amino acids) and a light chain (248 amino acids); purchased Enzyme Research Laboratories
In words: Kallikrein Assay. The experiment is classed as biochemical. The note with it: Plasma Kallekrein IC50; fluorogenic substrate Acetyl-K-P-R-AFC, 0.5 nM enzyme, pH 7.4; read-out: PK IC50. The protocol: The effectiveness of a compound of the present invention as an inhibitor of Kallikrein can be determined using a relevant purified serine protease, and an appropriate synthetic substrate. The rate of hydrolysis of the chromogenic or fluorogenic substrate by the relevant serine protease was measured both in the absence and presence of compounds of the present invention. Assays were conducted at room temperature or at 37° C. […] A decrease in the rate of fluorescence change in the presence of inhibitor is indicative of enzyme inhibition. Such methods are known to one skilled in the art. The results of this assay are expressed as the inhibitory constant, K1.
Kallikrein determinations were made in 50 mM HEPES buffer at pH 7.4 containing 150 mM NaCl, 5 mM CaCl2, and 0.1% PEG 8000 (polyethylene glycol; Fisher Scientific). Determinations were made using purified Human plasma kallikrein at a final concentration of 0.5 nM (Enzyme Research Laboratories) and the synthetic substrate, Acetyl-K—P—R-AFC (Sigma # C6608) at a concentration of […].
Times required to achieve equilibration between enzyme and inhibitor were determined in control experiments. The reactions were performed under linear progress curve conditions and fluorescence increase measured at 405 Ex/510 Em nm. […] IC50 was determined by inflection point from a four parameter logistic curve fit. Ki was calculated using the Cheng Prusoff equation, Ki=IC50/(1+([S]/Km)).

T1 sequence (P03951 388-625 limits assumed): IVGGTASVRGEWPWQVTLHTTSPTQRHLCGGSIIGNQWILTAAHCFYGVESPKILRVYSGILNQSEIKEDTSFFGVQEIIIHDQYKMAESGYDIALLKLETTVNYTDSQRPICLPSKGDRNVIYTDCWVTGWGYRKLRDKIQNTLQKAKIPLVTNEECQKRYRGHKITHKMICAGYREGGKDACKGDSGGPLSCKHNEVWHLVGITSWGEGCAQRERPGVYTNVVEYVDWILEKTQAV
T1 sequence (P03951 19-387 partner limits assumed): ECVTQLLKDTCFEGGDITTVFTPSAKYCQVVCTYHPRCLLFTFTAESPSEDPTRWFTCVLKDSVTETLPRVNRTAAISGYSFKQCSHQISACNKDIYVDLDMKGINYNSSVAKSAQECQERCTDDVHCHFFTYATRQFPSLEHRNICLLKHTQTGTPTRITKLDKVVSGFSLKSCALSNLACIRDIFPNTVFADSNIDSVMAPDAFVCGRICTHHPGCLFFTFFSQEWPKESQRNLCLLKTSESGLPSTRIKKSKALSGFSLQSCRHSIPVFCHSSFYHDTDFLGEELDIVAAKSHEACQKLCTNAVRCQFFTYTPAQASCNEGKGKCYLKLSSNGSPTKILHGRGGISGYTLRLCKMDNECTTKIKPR
T2 sequence (P03952 391-638 limits assumed): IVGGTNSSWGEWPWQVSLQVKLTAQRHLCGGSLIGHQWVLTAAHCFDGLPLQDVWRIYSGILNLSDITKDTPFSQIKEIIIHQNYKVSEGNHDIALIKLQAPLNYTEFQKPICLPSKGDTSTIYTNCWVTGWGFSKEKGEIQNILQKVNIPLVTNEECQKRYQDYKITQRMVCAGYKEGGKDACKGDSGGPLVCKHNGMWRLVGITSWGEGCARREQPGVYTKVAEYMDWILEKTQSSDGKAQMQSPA
T2 sequence (P03952 20-390 partner limits assumed): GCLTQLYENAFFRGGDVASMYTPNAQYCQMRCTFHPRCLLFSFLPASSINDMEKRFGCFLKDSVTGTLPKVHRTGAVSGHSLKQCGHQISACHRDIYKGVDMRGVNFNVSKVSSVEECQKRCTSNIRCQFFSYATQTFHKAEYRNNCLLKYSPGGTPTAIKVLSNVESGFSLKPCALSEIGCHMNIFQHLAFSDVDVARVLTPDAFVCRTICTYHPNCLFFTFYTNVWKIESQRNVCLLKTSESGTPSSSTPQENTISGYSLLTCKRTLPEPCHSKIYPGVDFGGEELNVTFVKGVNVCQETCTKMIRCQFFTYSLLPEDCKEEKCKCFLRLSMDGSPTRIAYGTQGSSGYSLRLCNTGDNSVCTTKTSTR

As a reminder, the IC50 is the concentration that gives 50% inhibition. Consider `COC(=O)Nc1ccc(-c2c[nH]c(C(Cc3ccc(F)cc3)c3ccc(-c4c(C(F)F)ccc(Cl)c4F)c[n+]3[O-])n2)cc1` (racemic) [Example 13, 5-(3-Chloro-6-(difluoromethyl)-2-fluorophenyl)-2-(2-(4-fluorophenyl)-1-(4-(4-((methoxycarbonyl)amino)phenyl)-1H-imidazol-2-yl)ethyl)pyridine 1-oxide], for which the IC50 is 11.3 nM in experiment [1] and 10.3 nM in experiment [2].

As to `COC(=O)Nc1ccc(-c2cnc(C(CC3CC3)c3ccc(-c4cc(Cl)ccc4-n4cc(Cl)nn4)c[n+]3[O-])[nH]2)cc1` (racemic) [Example 67], the IC50 came to 6.51 nM in experiment [1] and 208 nM in experiment [2].

Turning to `COC(=O)Nc1ccc(-c2cnc(C(CC3CC3)c3ccc(-c4cc(Cl)ccc4-c4csnn4)c[n+]3[O-])[nH]2)cc1` (racemic) [Example 72], the IC50 was 51.5 nM in experiment [1] and 2610 nM in experiment [2].

In the case of `COC(=O)Nc1ccc(-c2nnc(C(Cc3ccccc3)c3ccc(-c4cc(Cl)ccc4-n4cnnn4)c[n+]3[O-])o2)cc1` (racemic) [Example 83, 5-(5-chloro-2-(1H-tetrazol-1-yl)phenyl)-2-(1-(5-(4-((methoxycarbonyl)amino)phenyl)-1,3,4-oxadiazol-2-yl)-2-phenylethyl)pyridine 1-oxide], the IC50 in experiment [1] turned out to be 1.2 nM; in experiment [2] it was 68 nM.

On to `[O-][n+]1cc(-c2cc(Cl)ccc2-n2cnnn2)ccc1C(Cc1ccccc1)c1nc(-c2cccc(F)c2)c[nH]1` (single isomer, unassigned) [Example 3], for which the IC50 was determined as 2.87 nM in experiment [1] and 27.6 nM in experiment [2].

With `[O-][n+]1cc(-c2cc(Cl)ccc2-n2cnnn2)ccc1C(Cc1ccccc1)c1nc(-c2cccc(F)c2)c[nH]1` (single isomer, unassigned) [Example 4], the figures for the IC50 in experiment [1] and in experiment [2] were 38.9 nM and 624 nM, respectively.

Consider `COC(=O)Nc1ccc(-c2c[nH]c(C(Cc3ccccc3)c3ccc(-c4c(F)ccc(Cl)c4F)c[n+]3[O-])n2)cc1` (single isomer, unassigned) [Example 5], for which the IC50 in experiment [1] came out at 42.2 nM; in experiment [2] it was 137 nM.

In the case of `O=C(O)c1ccc(-c2cnc(C(Cc3ccccc3)c3ccc(-c4cc(Cl)ccc4-n4cnnn4)c[n+]3[O-])[nH]2)cc1` (single isomer, unassigned) [Example 7], the IC50 in experiment [1] was 10.2 nM; in experiment [2], 469 nM.

Turning to `O=C(O)c1ccc(-c2cnc(C(Cc3ccccc3)c3ccc(-c4cc(Cl)ccc4-n4cnnn4)c[n+]3[O-])[nH]2)cc1` (single isomer, unassigned) [Example 8], the IC50 in experiment [1] was found to be 0.67 nM; in experiment [2] it was 26 nM.

In the case of `O=C(O)c1scc(-c2c[nH]c(C(Cc3ccccc3)c3ccc(-c4cc(Cl)ccc4-n4cnnn4)c[n+]3[O-])n2)c1F` (single isomer, unassigned) [Example 9], the IC50 in experiment [1] was 0.19 nM; in experiment [2], 0.94 nM.

With `O=C(O)c1scc(-c2c[nH]c(C(Cc3ccccc3)c3ccc(-c4cc(Cl)ccc4-n4cnnn4)c[n+]3[O-])n2)c1F` (single isomer, unassigned) [Example 10], the values for the IC50 in experiment [1] and in experiment [2] were 10.1 nM and 117 nM, respectively.

As for `COC(=O)Nc1ccc(-c2c[nH]c(C(Cc3ccc(F)cc3)c3ccc(-c4cc(Cl)ccc4C(F)F)c[n+]3[O-])n2)cc1` (single isomer, unassigned) [Example 11, 5-(5-chloro-2-(difluoromethyl)phenyl)-2-(2-(4-fluorophenyl)-1-(4-(4-((methoxycarbonyl)amino)phenyl)-1H-imidazol-2-yl)ethyl)pyridine 1-oxide], the IC50 in experiment [1] is 1.86 nM; in experiment [2] it was 10.1 nM.

Regarding `[O-][n+]1cc(-c2cc(Cl)ccc2-n2cnnn2)ccc1C(Cc1ccc(F)cc1)c1nc(-c2ccc(F)cc2)c[nH]1` (single isomer, unassigned) [Example 16], the IC50 in experiment [1] was determined as 3.82 nM; in experiment [2], 0.78 nM.

For `[O-][n+]1cc(-c2cc(Cl)ccc2-n2cnnn2)ccc1C(Cc1ccc(F)cc1)c1nc(-c2ccc(F)cc2)c[nH]1` (single isomer, unassigned) [Example 17], the results for the IC50 in experiment [1] and in experiment [2] were 14.8 nM and 404 nM, respectively.

Take `N#Cc1ccc(-c2c[nH]c(C(Cc3ccc(F)cc3)c3ccc(-c4cc(Cl)ccc4-n4cnnn4)c[n+]3[O-])n2)cc1` (single isomer, unassigned) [Example 20]: the IC50 worked out at 1.54 nM in experiment [1] and 28.8 nM in experiment [2].

As to `[O-][n+]1cc(-c2cc(Cl)ccc2-n2cnnn2)ccc1C(Cc1ccc(F)cc1)c1nc(-c2ccc(Cl)cc2)c[nH]1` (single isomer, unassigned) [Example 22], the IC50 in experiment [1] stood at 6.52 nM; in experiment [2], 193 nM.

As for `COC(=O)Nc1ccc(-c2cnc(C(CC3CC3)c3ccc(-c4cc(Cl)ccc4-n4cnnn4)c[n+]3[O-])[nH]2)cc1` (single isomer, unassigned) [Example 28, 5-(5-chloro-2-(1H-tetrazol-1-yl)phenyl)-2-(2-cyclopropyl-1-(5-(4-((methoxycarbonyl)amino)phenyl)-1H-imidazol-2-yl)ethyl)pyridine 1-oxide], in experiment [2], the IC50 was found to be 20.8 nM.

Take `N#Cc1ccc(-c2cnc(C(CC3CC3)c3ccc(-c4cc(Cl)ccc4-n4cnnn4)c[n+]3[O-])[nH]2)cc1` (single isomer, unassigned) [Example 29, 4-[2-(1-{5-[5-chloro-2-(1H-tetrazol-1-yl)phenyl]-1-oxidopyridin-2-yl}-2-cyclopropylethyl)-1H-imidazol-5-yl]benzonitrile]: the half-maximal inhibitory concentration (IC50) in experiment [1] is 2.85 nM; in experiment [2], 226 nM.

`[O-][n+]1cc(-c2cc(Cl)ccc2-n2cnnn2)ccc1C(CC1CC1)c1ncc(-c2cccc(F)c2)[nH]1` (single isomer, unassigned) [Example 32]: the values for the IC50 in experiment [1] and in experiment [2] were 14.7 nM and 428 nM, respectively.

Take `COC(=O)Nc1ccc(-c2cnc(C(CC3CC3)c3ccc(-c4cc(Cl)ccc4-n4cnnn4)c[n+]3[O-])[nH]2)c(C)c1` (single isomer, unassigned) [Example 33]: the figures for the IC50 in experiment [1] and in experiment [2] were 19 nM and 625 nM, respectively.

For the molecule `COC(=O)Nc1ccc(-c2cnc(C(CC3CC3)c3ccc(-c4cc(Cl)ccc4-n4cnnn4)c[n+]3[O-])[nH]2)c(C)c1` (single isomer, unassigned) [Example 34], the IC50 in experiment [1] is 0.24 nM; in experiment [2], 31.3 nM.

Take `N#Cc1cccc(-c2cnc(C(CC3CC3)c3ccc(-c4cc(Cl)ccc4-n4cnnn4)c[n+]3[O-])[nH]2)c1` (single isomer, unassigned) [Example 36]: the IC50 in experiment [1] is 27.4 nM; in experiment [2] it was 377 nM.

For `COC(=O)Nc1ccc(-c2cnc(C(CC3CC3)c3ccc(-c4cc(Cl)ccc4-n4cnnn4)c[n+]3[O-])[nH]2)c(F)c1` (single isomer, unassigned) [Example 38], the IC50 is 0.48 nM in experiment [1] and 38.5 nM in experiment [2].

In the case of `COC(=O)Nc1ccc(-c2cnc(C(CC3CC3)c3ccc(-c4cc(Cl)ccc4-n4cnnn4)c[n+]3[O-])[nH]2)cc1F` (single isomer, unassigned) [Example 40], the half-inhibitory concentration (IC50) in experiment [1] was found to be 1.52 nM; in experiment [2] it was 39 nM.

As to `COC(=O)Nc1ccc(-c2c[nH]c(C(CC3CC3)c3ccc(-c4c(-n5cnnn5)ccc(Cl)c4F)c[n+]3[O-])n2)cc1` (single isomer, unassigned) [Example 63, 5-(3-chloro-2-fluoro-6-(1H-tetrazol-1-yl)phenyl)-2-(2-cyclopropyl-1-(4-(4-((methoxycarbonyl)amino)phenyl)-1H-imidazol-2-yl)ethyl)pyridine 1-oxide], in experiment [2], the IC50 stood at 231 nM.

Turning to `COC(=O)Nc1ccc(-c2c[nH]c(C(CC3CC3)c3ccc(-c4c(-n5cnnn5)ccc(Cl)c4F)c[n+]3[O-])n2)cc1` (single isomer, unassigned) [Example 64, 5-(3-chloro-2-fluoro-6-(1H-tetrazol-1-yl)phenyl)-2-(2-cyclopropyl-1-(4-(4-((methoxycarbonyl)amino)phenyl)-1H-imidazol-2-yl)ethyl)pyridine 1-oxide], the 50% inhibitory concentration (IC50) in experiment [2] is 5.6 nM.
